# Experimental data published in patent publication US20230116114A1, “COMPOUNDS AND COMPOSITIONS FOR TREATING CNS DISORDERS” (Blue Oak Pharmaceuticals, Inc., priority 2020, published 2023).
# Counter-ions that a name gives are not always drawn.
# Test system: mice
# Assay: SmartCube in vivo neuropharmacological behavioral assay
# Conditions: for minimal effective dose: Mus musculus, ip, 0.25 h, dose having 50% or more total activity in SmartCube, i.p., read-out: MED (minimal effective dose); for AD: antidepressant (percent probability) / AG: analgesic (percent probability) / AP: antipsychotic (percent probability) / AX: anxiolytic (percent probability) / CE: cognitive enhancer (percent probability) / HA: hallucinogenic (percent probability) / MS: mood stabilizer (percent probability) / PS (percent probability) / SD: sedative hypnotic (percent probability) / SE: side effects (percent probability) / UN: uncharacterized CNS activity (percent probability) / XG: anxiogenic (percent probability): SmartCube, i.p. 15 min before test, result at the MED
# Description: The compounds were evaluated for their CNS related properties (e.g., the treatment, prevention or diagnosis of CNS or CNS-related disorders and/or amelioration of symptoms) using neuropharmacological screening methods described in S. L. Roberts et al., Front. Neurosci. 2011, 5:103 (hereinafter referred to as “Roberts,” the contents of which are incorporated herein by reference in their entirety).
# According to Roberts, intact systems are useful in detecting improvement in disease-relevant endpoints, because psychiatric diseases generally result from disorders of cell-cell communication or circuitry. The endpoints are typically behavioral in nature, often requiring human observation and interpretation. In order to test multiple compounds for behavioral effects relevant to neurological and psychiatric diseases and disorders, PsychoGenics, Inc. (Paramus, N.J. “PGI”) developed SmartCube®, an automated system in which behaviors of compound-treated mice are captured by digital video and analyzed with computer algorithms to facilitate testing of multiple compounds for behavioral effects relevant to psychiatric disease. (D. Brunner et al., Drug Discov. Today 2002, 7:S107-S112; Alexandrov et al., Eur. J. Pharmacol. 2015, 753:127-134; the contents of each of which are incorporated herein by reference in their entirety).
# The SmartCube® system is described in Example 2.2 of U.S. Pat. No. 9,758,529 and Example 289 of WIPO Publication No. WO2018/023070, the contents of each of which are incorporated herein by reference in their entirety.
# According to the present disclosure, compounds identified may be evaluated using the SmartCube® system. The results of such analysis correlate certain patterns or combinations of behaviors to CNS effects along a percent probability scale of 0-100 where zero (0) reflects the limit of quantitation (LOQ).
# The compounds of the present disclosure were evaluated for their CNS related properties (e.g., the treatment, prevention or diagnosis of CNS or CNS-related disorders and/or amelioration of symptoms) using neuropharmacological screening methods described in S. L. Roberts et al., Front. Neurosci. 2011, 5:103 (hereinafter referred to as “Roberts,” the contents of which are incorporated herein by reference in their entirety).
# The SmartCube® system described herein was utilized to compare the behavioral signature of a test compound to a database of behavioral signatures obtained using a large set of diverse reference compounds (including but not limited to antipsychotics, anxiolytics, antidepressants and bipolar disorder medicine), thereby predicting the neuropharmacological effects of a test compound by similarity to major classes of compounds. It produces an activity signature indicating the probability that the activity of the test compound at the administered dose matches a given class of neuropharmacological agents. The test compound is simultaneously compared against multiple classes of agents; thus, a separate probability is generated for each behavioral effect measured (such as but not limited to anxiolytic activity and analgesic activity).
# The compounds of the present disclosure were dissolved in a mixture of Pharmasolve™ (N-methyl-2-pyrrolidone (NMP)) and were injected i.p. 15 min. before the behavioral test. For each compound, injections were administered at different dose levels (e.g., 0.3, 1, 3, 10 and 30 mg per kg (mpk)). A compound's minimal effective dose (MED; see Table 3) is a measure of the compound's potency. The MED was defined as the dose (in mpk) having 50% or more total activity in SmartCube®. For each behavioral effect measured, results at the MED are presented. CNS activities of the compounds were recorded (see Table 2). In Table 1, a key to the percent probabilities (probability ×100) for each behavioral effect (“X”) are defined provided, where LOQ is the limit of quantification.
Compound,minimal effective dose,AD: antidepressant (percent probability),AG: analgesic (percent probability),AP: antipsychotic (percent probability),AX: anxiolytic (percent probability),CE: cognitive enhancer (percent probability),HA: hallucinogenic (percent probability),MS: mood stabilizer (percent probability),PS (percent probability),SD: sedative hypnotic (percent probability),SE: side effects (percent probability),UN: uncharacterized CNS activity (percent probability),XG: anxiogenic (percent probability)
"CCC(C)N1C2CCCC1c1ccccc12 (centres unmarked) [Compound 12, 12-(Butan-2-yl)-12-azatricyclo[6.3.1.0^2,7]dodeca-2,4,6-triene]",1 to 10 mg/kg,++ (5% ≤ X < 25%),+ (LOQ ≤ X < 5%),+ (LOQ ≤ X < 5%),++ (5% ≤ X < 25%),+ (LOQ ≤ X < 5%),+ (LOQ ≤ X < 5%),+ (LOQ ≤ X < 5%),+ (LOQ ≤ X < 5%),+ (LOQ ≤ X < 5%),+ (LOQ ≤ X < 5%),+++ (25% ≤ X < 50%),+ (LOQ ≤ X < 5%)
"c1ccc2c(c1)C1CCCC2N1C1CCCCC1 [Compound 13, 12-Cyclohexyl-12-azatricyclo[6.3.1.0^2,7]dodeca-2,4,6-triene hydrochloride]",10 to 30 mg/kg,+++ (25% ≤ X < 50%),+ (LOQ ≤ X < 5%),+ (LOQ ≤ X < 5%),++ (5% ≤ X < 25%),+ (LOQ ≤ X < 5%),+ (LOQ ≤ X < 5%),+ (LOQ ≤ X < 5%),++ (5% ≤ X < 25%),+ (LOQ ≤ X < 5%),+ (LOQ ≤ X < 5%),+ (LOQ ≤ X < 5%),+ (LOQ ≤ X < 5%)
"FCC(CF)N1C2CCCC1c1ccccc12 [Compound 14, 12-(1,3-Difluoropropan-2-yl)-12-azatricyclo[6.3.1.0^20.7]dodeca-2,4,6-triene hydrochloride]",10 to 30 mg/kg,++ (5% ≤ X < 25%),+++ (25% ≤ X < 50%),+ (LOQ ≤ X < 5%),++ (5% ≤ X < 25%),+ (LOQ ≤ X < 5%),+ (LOQ ≤ X < 5%),+ (LOQ ≤ X < 5%),+ (LOQ ≤ X < 5%),+ (LOQ ≤ X < 5%),+ (LOQ ≤ X < 5%),+ (LOQ ≤ X < 5%),+ (LOQ ≤ X < 5%)
"c1ccc2c(c1)C1CCCC2N1C1CC1 [Compound 15, 12-Cyclopropyl-12-azatricyclo[6.3.1.0^20.7]dodeca-2,4,6-triene hydrochloride]",10 to 30 mg/kg,++++ (50% ≤ X < 100%),++ (5% ≤ X < 25%),+ (LOQ ≤ X < 5%),++ (5% ≤ X < 25%),+ (LOQ ≤ X < 5%),+ (LOQ ≤ X < 5%),+ (LOQ ≤ X < 5%),++ (5% ≤ X < 25%),+ (LOQ ≤ X < 5%),+ (LOQ ≤ X < 5%),+ (LOQ ≤ X < 5%),++ (5% ≤ X < 25%)
"CCCC(C)N1C2CCCC1c1ccccc12 (centres unmarked) [Compound 16, 12-(Pentan-2-yl)-12-azatricyclo[6.3.1.0^20.7]dodeca-2,4,6-triene hydrochloride]",10 to 30 mg/kg,+++ (25% ≤ X < 50%),++ (5% ≤ X < 25%),+ (LOQ ≤ X < 5%),++ (5% ≤ X < 25%),+ (LOQ ≤ X < 5%),++ (5% ≤ X < 25%),+ (LOQ ≤ X < 5%),+ (LOQ ≤ X < 5%),+ (LOQ ≤ X < 5%),+ (LOQ ≤ X < 5%),++ (5% ≤ X < 25%),+ (LOQ ≤ X < 5%)
"CCC(CC)N1C2CCCC1c1ccccc12 [Compound 17, 12-(Pentan-3-yl)-12-azatricyclo[6.3.1.0^2,7]dodeca-2,4,6-trienehydrochloride]",10 to 30 mg/kg,++ (5% ≤ X < 25%),+ (LOQ ≤ X < 5%),+ (LOQ ≤ X < 5%),++ (5% ≤ X < 25%),+ (LOQ ≤ X < 5%),+ (LOQ ≤ X < 5%),+ (LOQ ≤ X < 5%),++++ (50% ≤ X < 100%),+ (LOQ ≤ X < 5%),+ (LOQ ≤ X < 5%),+ (LOQ ≤ X < 5%),+ (LOQ ≤ X < 5%)
"COCC(C)N1C2CCCC1c1ccccc12 (centres unmarked) [Compound 18, 12-(1-Methoxypropan-2-yl)-12-azatricyclo[6.3.1.0^2,7]dodeca-2,4,6-triene]",10 to 30 mg/kg,++++ (50% ≤ X < 100%),+ (LOQ ≤ X < 5%),+ (LOQ ≤ X < 5%),++ (5% ≤ X < 25%),+ (LOQ ≤ X < 5%),+ (LOQ ≤ X < 5%),+ (LOQ ≤ X < 5%),+ (LOQ ≤ X < 5%),+ (LOQ ≤ X < 5%),+ (LOQ ≤ X < 5%),+ (LOQ ≤ X < 5%),+ (LOQ ≤ X < 5%)
"CC(CF)N1C2CCCC1c1ccccc12 (centres unmarked) [Compound 19, 12-(1-Fluoropropan-2-yl)-12-azatricyclo[6.3.1.0^2,7]dodeca-2,4,6-triene hydrochloride]",10 to 30 mg/kg,++ (5% ≤ X < 25%),+ (LOQ ≤ X < 5%),+ (LOQ ≤ X < 5%),++++ (50% ≤ X < 100%),+ (LOQ ≤ X < 5%),+ (LOQ ≤ X < 5%),+ (LOQ ≤ X < 5%),+ (LOQ ≤ X < 5%),+ (LOQ ≤ X < 5%),+ (LOQ ≤ X < 5%),+ (LOQ ≤ X < 5%),+ (LOQ ≤ X < 5%)
